Literature values as cited in patent publication US20090036693A1, “METHOD OF PURIFYING UBIQUINONE-10” (Kyowa Hakko Kogyo Co., Ltd., priority 2005, published 2009).

Conditions: solvent methanol; background statement

## COC1=C(OC)C(=O)C(C/C=C(\C)CC/C=C(\C)CC/C=C(\C)CC/C=C(\C)CC/C=C(\C)CC/C=C(\C)CC/C=C(\C)CC/C=C(\C)CC/C=C(\C)CCC=C(C)C)=C(C)C1=O [ubiquinone-10]
  solubility in methanol: ≤ 5000 µg/mL
